# Assays:
# Malassezia restricta = assay: Antifungal growth inhibition on MLNA agar, scored against growth control; assay type: cell-based; conditions: for Inhibition score Malassezia restricta: MLNA agar, at least 5 days at 30° C.
# Description: (§1) A solution containing 2% by weight of test compound is prepared in “modified Leeming and Notman liquid (MLNA)” in the following way: 0.2048 g of test compound is weighed out into qs for 10 ml of modified Leeming and Notman liquid; solubilization is carried out by heating and the use of ultrasound. The solutions of test product are twice as concentrated as the final test concentration, in order to take into account the dilution when they are brought into contact with the Malassezia suspension. One of the previously prepared solutions at 2% is diluted to ½ in modified Leeming and Notman liquid, so as to finally obtain a test concentration of 0.5%; the other solution is used as it is (at 2%) so as to finally obtain a test concentration of 1%. The Malassezia strains are brought into contact according to the table below: [table] The mixture is stirred and deposited at the surface of the MLNA agar. It is spread, with a sterile scraper, over the entire surface before recovering the excess. It is left to incubate for at least 5 days at 30° C. The antifungal effect of the compound is evaluated via the absence of growth of the Malassezia strain tested. This inhibition is evaluated relative to the growth control. The inhibitions are scored from 0 to 3 via assessment of the density of the culture at the surface of the agar, in comparison with the growth control, in the following way: [table]
# Malassezia globosa = assay: as above; assay type: cell-based; conditions: for Inhibition score Malassezia globosa: MLNA agar, at least 5 days at 30° C.
# Description: as §1
structure (smiles),measurement,setting,value
CCOc1cc(CCC(C)=O)ccc1O [Compound tested],Growth inhibition of Malassezia restricta (in words),Malassezia restricta; compound at 0.5%,very effective
same,Growth inhibition of Malassezia restricta (in words),Malassezia restricta; compound at 1%,completely inhibits the growth
same,Inhibition score Malassezia restricta,Malassezia restricta; test concentration 0.5%,3 (100% No growth)
same,Inhibition score Malassezia restricta,Malassezia restricta; test concentration 1%,3 (100% No growth)
same,Growth inhibition of Malassezia globosa (in words),Malassezia globosa; compound at 0.5%,weakly
same,Growth inhibition of Malassezia globosa (in words),Malassezia globosa; compound at 1%,completely inhibits the growth
same,Inhibition score Malassezia globosa,Malassezia globosa; test concentration 0.5%,1 (25% Growth < in the control dish)
same,Inhibition score Malassezia globosa,Malassezia globosa; test concentration 1%,3 (100% No growth)
